Measurements as given in US12065436B2, “Cardiac sarcomere inhibitors” (Cytokinetics, Inc., priority 2018, dated 2024).

Biological target: bovine cardiac myofibrils (full-length cardiac myosin ATPase in the native sarcomere) (Bos taurus (Bovine), UniProt Q9BE39)
Assay: Skinned bovine cardiac myofibril ATPase assay (PK/LDH-coupled)
Type: biochemical
Conditions: Ca2+ activating to 75% of maximal rate; for CDMF75 IC15: concentration giving 15% inhibition; for IC50: read-out: CDMF75 IC50
How it was run: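 Inhibition of steady-state ATPase read at 340 nm through a PK/LDH-coupled NADH system (0.5 mM NADH, 1.5 mM PEP). Detergent-skinned bovine cardiac myofibrils, 1 mg/mL, were tested at pH 6.8 in PIPES/MgCl2 with 50 μM ATP and calcium adjusted to give pCa50 or pCa75 activation.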

Sequence of bovine cardiac myofibrils (full-length cardiac myosin ATPase in the native sarcomere) (Q9BE39 whole entry): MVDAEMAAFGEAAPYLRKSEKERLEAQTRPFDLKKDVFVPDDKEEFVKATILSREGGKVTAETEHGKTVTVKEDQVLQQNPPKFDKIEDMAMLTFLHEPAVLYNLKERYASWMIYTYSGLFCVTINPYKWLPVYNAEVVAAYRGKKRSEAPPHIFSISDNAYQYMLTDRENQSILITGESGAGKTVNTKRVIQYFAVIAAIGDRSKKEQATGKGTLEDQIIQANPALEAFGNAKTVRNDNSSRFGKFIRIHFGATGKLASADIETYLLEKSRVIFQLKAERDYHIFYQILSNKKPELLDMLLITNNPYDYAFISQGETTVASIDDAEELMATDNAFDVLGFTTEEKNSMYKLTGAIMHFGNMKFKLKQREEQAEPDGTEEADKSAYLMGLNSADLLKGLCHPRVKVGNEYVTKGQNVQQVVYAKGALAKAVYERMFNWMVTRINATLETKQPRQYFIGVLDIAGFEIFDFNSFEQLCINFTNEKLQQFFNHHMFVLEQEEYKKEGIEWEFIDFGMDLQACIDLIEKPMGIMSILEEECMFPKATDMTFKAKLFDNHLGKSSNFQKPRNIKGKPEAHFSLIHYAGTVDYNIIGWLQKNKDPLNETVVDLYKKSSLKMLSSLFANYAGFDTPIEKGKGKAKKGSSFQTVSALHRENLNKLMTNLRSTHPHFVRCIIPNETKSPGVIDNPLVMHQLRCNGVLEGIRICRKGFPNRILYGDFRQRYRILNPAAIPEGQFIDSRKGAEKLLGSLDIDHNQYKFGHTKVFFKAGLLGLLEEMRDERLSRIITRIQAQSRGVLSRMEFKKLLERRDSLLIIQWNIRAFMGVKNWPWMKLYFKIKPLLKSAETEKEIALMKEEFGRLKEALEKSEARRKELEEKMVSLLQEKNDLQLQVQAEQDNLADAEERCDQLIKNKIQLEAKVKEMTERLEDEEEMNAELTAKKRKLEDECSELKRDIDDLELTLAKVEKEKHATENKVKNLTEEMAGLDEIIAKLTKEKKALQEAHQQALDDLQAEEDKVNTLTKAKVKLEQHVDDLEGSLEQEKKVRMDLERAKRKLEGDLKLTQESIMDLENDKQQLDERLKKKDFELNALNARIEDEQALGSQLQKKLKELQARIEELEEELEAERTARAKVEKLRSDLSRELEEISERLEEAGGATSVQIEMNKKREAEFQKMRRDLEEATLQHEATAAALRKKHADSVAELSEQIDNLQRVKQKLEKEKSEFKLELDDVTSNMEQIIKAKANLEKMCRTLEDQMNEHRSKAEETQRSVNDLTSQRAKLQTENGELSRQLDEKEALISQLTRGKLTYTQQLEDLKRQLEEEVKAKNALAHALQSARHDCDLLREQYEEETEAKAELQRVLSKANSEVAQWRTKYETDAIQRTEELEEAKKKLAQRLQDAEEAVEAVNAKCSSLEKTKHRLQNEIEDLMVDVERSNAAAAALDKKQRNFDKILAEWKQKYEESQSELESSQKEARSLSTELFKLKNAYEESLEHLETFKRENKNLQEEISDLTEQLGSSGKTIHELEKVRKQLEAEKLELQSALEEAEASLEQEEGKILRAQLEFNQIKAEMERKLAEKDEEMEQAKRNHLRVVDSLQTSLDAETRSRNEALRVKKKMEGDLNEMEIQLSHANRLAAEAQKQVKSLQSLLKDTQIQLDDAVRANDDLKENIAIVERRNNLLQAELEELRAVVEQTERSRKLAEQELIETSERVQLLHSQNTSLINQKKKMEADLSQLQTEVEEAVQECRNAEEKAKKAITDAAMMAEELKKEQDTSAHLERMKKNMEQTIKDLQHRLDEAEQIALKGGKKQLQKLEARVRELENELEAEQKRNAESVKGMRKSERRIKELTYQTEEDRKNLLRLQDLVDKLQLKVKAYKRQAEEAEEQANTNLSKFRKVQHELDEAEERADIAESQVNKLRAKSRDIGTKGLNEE
Sequence of bovine cardiac myofibrils (full-length cardiac myosin ATPase in the native sarcomere) (P85100 whole entry partner): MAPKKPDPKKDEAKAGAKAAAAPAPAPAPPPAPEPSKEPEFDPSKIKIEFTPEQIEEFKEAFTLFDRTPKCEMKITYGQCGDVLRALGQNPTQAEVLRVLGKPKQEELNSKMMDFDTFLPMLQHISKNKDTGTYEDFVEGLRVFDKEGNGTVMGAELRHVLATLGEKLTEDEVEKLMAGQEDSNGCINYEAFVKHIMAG
Sequence of bovine cardiac myofibrils (full-length cardiac myosin ATPase in the native sarcomere) (Q3SZE5 whole entry partner): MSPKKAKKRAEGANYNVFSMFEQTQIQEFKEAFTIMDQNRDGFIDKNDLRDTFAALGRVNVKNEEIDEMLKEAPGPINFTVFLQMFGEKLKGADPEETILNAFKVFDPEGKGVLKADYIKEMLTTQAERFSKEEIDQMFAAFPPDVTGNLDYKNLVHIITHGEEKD

SMILES	CDMF75 IC15	IC50
CCc1nc(-c2ccc3c(c2)CCC3C(=O)Nc2cnn(C)c2)no1 (centres unmarked) [Compound 482, 5-(5-ethyl-1,2,4-oxadiazol-3-yl)-N-(1-methyl-1H-pyrazol-4-yl)-2,3-dihydro-1H-indene-1-carboxamide]	3.9 µM	
CCc1nc(-c2ccc3c(c2)CCC3C(=O)Nc2ccnc(C)c2)no1 (centres unmarked) [Compound 483, 5-(5-ethyl-1,2,4-oxadiazol-3-yl)-N-(2-methylpyridin-4-yl)-2,3-dihydro-1H-indene-1-carboxamide]	2.0 µM	6.8 µM
CCc1nc(-c2ccc3c(c2)CC[C@H]3NC(=O)c2cnn(CC(O)CO)c2)no1 (stereo partly drawn) [Compound 485, 1-(2,3-dihydroxypropyl)-N-((R)-5-(5-ethyl-1,2,4-oxadiazol-3-yl)-2,3-dihydro-1H-inden-1-yl)-1H-pyrazole-4-carboxamide]	1.2 µM	4.1 µM
CCc1nc(-c2ccc3c(c2)CC[C@H]3NC(=O)c2cn[nH]c2OC)no1 [Compound 486, (R)-N-(5-(5-ethyl-1,2,4-oxadiazol-3-yl)-2,3-dihydro-1H-inden-1-yl)-5-methoxy-1H-pyrazole-4-carboxamide]	4.1 µM	24.3 µM
Cc1nc(-c2ccc3c(c2)CC[C@H]3NC(=O)c2cn[nH]c2)no1 [Compound 487, (R)-N-(5-(5-methyl-1,2,4-oxadiazol-3-yl)-2,3-dihydro-1H-inden-1-yl)-1H-pyrazole-4-carboxamide]	0.9 µM	3.4 µM
CC(C)c1nc(-c2ccc3c(c2)CC[C@H]3NC(=O)c2cn[nH]c2)no1 [Compound 488, (R)-N-(5-(5-isopropyl-1,2,4-oxadiazol-3-yl)-2,3-dihydro-1H-inden-1-yl)-1H-pyrazole-4-carboxamide]	1.1 µM	4.3 µM
COCc1nc(-c2ccc3c(c2)CC[C@H]3NC(=O)c2cn[nH]c2)no1 [Compound 490, (R)-N-(5-(5-(methoxymethyl)-1,2,4-oxadiazol-3-yl)-2,3-dihydro-1H-inden-1-yl)-1H-pyrazole-4-carboxamide]	1.6 µM	6.9 µM
[2H]C([2H])([2H])c1nc(-c2ccc3c(c2)CC[C@H]3NC(=O)c2cn[nH]c2)no1 [Compound 491, (R)-N-(5-(5-(methyl-d3)-1,2,4-oxadiazol-3-yl)-2,3-dihydro-1H-inden-1-yl)-1H-pyrazole-4-carboxamide]	1.0 µM	3.7 µM
CCOC(=O)C(C)c1nc(-c2ccc3c(c2)CC[C@H]3NC(=O)c2ccnn2C)no1 (stereo partly drawn) [Compound 492, ethyl 2-(3-((R)-1-(1-methyl-1H-pyrazole-5-carboxamido)-2,3-dihydro-1H-inden-5-yl)-1,2,4-oxadiazol-5-yl)propanoate]	1.1 µM	4 µM
CCOC(=O)C(C)c1nc(-c2ccc3c(c2)CCC3NC(=O)c2cnc(C)o2)no1 (centres unmarked) [Compound 493, ethyl 2-(3-(1-(2-methyloxazole-5-carboxamido)-2,3-dihydro-1H-inden-5-yl)-1,2,4-oxadiazol-5-yl)propanoate]	5.6 µM	21.4 µM
CCc1nc(-c2ccc3c(c2)C[C@H](O)[C@H]3NC(=O)c2cnn(C)c2)no1 [Compound 495, N-((1S,2S)-5-(5-ethyl-1,2,4-oxadiazol-3-yl)-2-hydroxy-2,3-dihydro-1H-inden-1-yl)-1-methyl-1H-pyrazole-4-carboxamide]	10.0 µM	39.2 µM
CC(CO)c1nc(-c2ccc3c(c2)CC[C@H]3NC(=O)c2ccnn2C)no1 (stereo partly drawn) [Compound 496, N-((1R)-5-(5-(1-hydroxypropan-2-yl)-1,2,4-oxadiazol-3-yl)-2,3-dihydro-1H-inden-1-yl)-1-methyl-1H-pyrazole-5-carboxamide]	7.1 µM	34.3 µM
C[C@H](CO)c1nc(-c2ccc3c(c2)CC[C@H]3NC(=O)c2ccnn2C)no1 [Compound 497, N-((R)-5-(5-((R)-1-hydroxypropan-2-yl)-1,2,4-oxadiazol-3-yl)-2,3-dihydro-1H-inden-1-yl)-1-methyl-1H-pyrazole-5-carboxamide]	7.4 µM	39.2 µM
C[C@@H](CO)c1nc(-c2ccc3c(c2)CC[C@H]3NC(=O)c2ccnn2C)no1 [Compound 498, N-((R)-5-(5-((S)-1-hydroxypropan-2-yl)-1,2,4-oxadiazol-3-yl)-2,3-dihydro-1H-inden-1-yl)-1-methyl-1H-pyrazole-5-carboxamide]	7.9 µM	34.7 µM
CC(C)c1nc(-c2ccc3c(c2)CC[C@H]3NC(=O)c2nn[nH]n2)no1 [Compound 499, (R)-N-(5-(5-isopropyl-1,2,4-oxadiazol-3-yl)-2,3-dihydro-1H-inden-1-yl)-2H-tetrazole-5-carboxamide]	2.4 µM	39.2 µM
CC(C)c1nc(-c2ccc3c(c2)CC[C@H]3NC(=O)c2nnn(Cc3ccccc3)n2)no1 [Compound 500, (R)-2-benzyl-N-(5-(5-isopropyl-1,2,4-oxadiazol-3-yl)-2,3-dihydro-1H-inden-1-yl)-2H-tetrazole-5-carboxamide]	1.0 µM	6.5 µM
CCc1nc(-c2ccc3c(c2)CC[C@H]3NC(=O)c2nnn(Cc3ccccc3)n2)no1 [Compound 501, (R)-2-benzyl-N-(5-(5-ethyl-1,2,4-oxadiazol-3-yl)-2,3-dihydro-1H-inden-1-yl)-2H-tetrazole-5-carboxamide]	0.3 µM	1.1 µM
CCc1nc(-c2ccc3c(c2)CC[C@H]3NC(=O)c2nn[nH]n2)no1 [Compound 502, (R)-N-(5-(5-ethyl-1,2,4-oxadiazol-3-yl)-2,3-dihydro-1H-inden-1-yl)-2H-tetrazole-5-carboxamide]	2.0 µM	8 µM
O=C(N[C@@H]1CCc2cc(-c3noc(C4CCC4)n3)ccc21)c1nnn(Cc2ccccc2)n1 [Compound 503, (R)-2-benzyl-N-(5-(5-cyclobutyl-1,2,4-oxadiazol-3-yl)-2,3-dihydro-1H-inden-1-yl)-2H-tetrazole-5-carboxamide]	0.8 µM	3.4 µM
CCOC(=O)C(C)c1nc(-c2ccc3c(c2)CC[C@H]3NC(=O)c2nnn(C)n2)no1 (stereo partly drawn) [Compound 504, ethyl 2-(3-((R)-1-(2-methyl-2H-tetrazole-5-carboxamido)-2,3-dihydro-1H-inden-5-yl)-1,2,4-oxadiazol-5-yl)propanoate]	4.4 µM	16.6 µM
O=C(N[C@@H]1CCc2cc(-c3noc(C4CCC4)n3)ccc21)c1nn[nH]n1 [Compound 505, (R)-N-(5-(5-cyclobutyl-1,2,4-oxadiazol-3-yl)-2,3-dihydro-1H-inden-1-yl)-2H-tetrazole-5-carboxamide]	6.5 µM	29.2 µM

Further lines, results first:

CDMF75 IC15	IC50	SMILES
39.2 µM	39.2 µM	CCc1nc(-c2ccc3c(c2)CC[C@H]3NC(=O)c2cnn(C3CNC3)c2)no1 [Compound 484, (R)-1-(azetidin-3-yl)-N-(5-(5-ethyl-1,2,4-oxadiazol-3-yl)-2,3-dihydro-1H-inden-1-yl)-1H-pyrazole-4-carboxamide]
2.4 µM	10 µM	CCc1nc(-c2ccc3c(c2)CC[C@H]3NC(=O)c2cnn(CCOC(C)=O)c2)no1 [Compound 494, (R)-2-(4-((5-(5-ethyl-1,2,4-oxadiazol-3-yl)-2,3-dihydro-1H-inden-1-yl)carbamoyl)-1H-pyrazol-1-yl)ethyl acetate]
4.5 µM	20 µM	CCc1nc(-c2ccc3c(c2)CC[C@H]3NC(=O)c2cnn(CC3COC3)c2)no1 [Compound 506, (R)-N-(5-(5-ethyl-1,2,4-oxadiazol-3-yl)-2,3-dihydro-1H-inden-1-yl)-1-(oxetan-3-ylmethyl)-1H-pyrazole-4-carboxamide]
32.6 µM	39.2 µM	CCc1nc(-c2ccc3c(c2)CC[C@H]3NC(=O)c2cnn(CC3(C)COC3)c2)no1 [Compound 507, (R)-N-(5-(5-ethyl-1,2,4-oxadiazol-3-yl)-2,3-dihydro-1H-inden-1-yl)-1-((3-methyloxetan-3-yl)methyl)-1H-pyrazole-4-carboxamide]
2.6 µM	11.3 µM	CCc1nc(-c2ccc3c(c2)CC[C@H]3NC(=O)c2cnn(CC3(F)COC3)c2)no1 [Compound 508, (R)-N-(5-(5-ethyl-1,2,4-oxadiazol-3-yl)-2,3-dihydro-1H-inden-1-yl)-1-((3-fluorooxetan-3-yl)methyl)-1H-pyrazole-4-carboxamide]
3.2 µM	12.8 µM	COCCn1cc(C(=O)N[C@@H]2CCc3cc(-c4noc(C)n4)ccc32)cn1 [Compound 509, (R)-1-(2-methoxyethyl)-N-(5-(5-methyl-1,2,4-oxadiazol-3-yl)-2,3-dihydro-1H-inden-1-yl)-1H-pyrazole-4-carboxamide]
1.9 µM	7.9 µM	COCCn1cc(C(=O)N[C@@H]2CCc3cc(-c4noc(C5CC5)n4)ccc32)cn1 [Compound 510, (R)-N-(5-(5-cyclopropyl-1,2,4-oxadiazol-3-yl)-2,3-dihydro-1H-inden-1-yl)-1-(2-methoxyethyl)-1H-pyrazole-4-carboxamide]
3.0 µM	14 µM	COCCn1cc(C(=O)N[C@@H]2CCc3cc(-c4noc(C(C)C)n4)ccc32)cn1 [Compound 511, (R)-N-(5-(5-isopropyl-1,2,4-oxadiazol-3-yl)-2,3-dihydro-1H-inden-1-yl)-1-(2-methoxyethyl)-1H-pyrazole-4-carboxamide]
4.5 µM	18.2 µM	COCCn1cc(C(=O)N[C@@H]2CCc3cc(-c4noc(COC)n4)ccc32)cn1 [Compound 512, (R)-1-(2-methoxyethyl)-N-(5-(5-(methoxymethyl)-1,2,4-oxadiazol-3-yl)-2,3-dihydro-1H-inden-1-yl)-1H-pyrazole-4-carboxamide]
